The subject of data set [1] is human umbilical vein endothelial cells (HUVEC). Nature of the data set: HUVEC proliferation assay (VEGF-stimulated, MTT). It counts as cell-based. The note with it: Homo sapiens. Put shortly:
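Proliferation measured by MTT reduction (4 h exposure, absorbance at 595) 72 hours after VEGF stimulation (final 6 ng/ml). Compound added to 24 h-starved HUVEC in F12K with 1% FBS and 0.1% final DMSO, one hour before the growth factor.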

Data set [2] concerns the target T1, unphosphorylated VEGF-R2Δ50 (FLVK) (Homo sapiens, UniProt P35968, DEL940-989/E990V).
T1 construct: VEGF-R2Δ50 contains residues 806-939 and 990-1171; made in house; host or cells: baculovirus/insect cells
Kind of data set: VEGF-R2 coupled spectrophotometric assay, unphosphorylated construct (FLVK).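 Also: Baculovirus-expressed cytosolic kinase domain, ADP formation linked via pyruvate kinase and lactate dehydrogenase to NADH oxidation, read as falling absorbance at 340 nm.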 It counts as biochemical.

Data set [3] concerns the target T2, FGF-R1 intracellular kinase domain (Homo sapiens, UniProt P11362, C488A/C584S/L457V).
T2 construct: starting from the endogenous methionine residue 456 to glutamate 766; made in house; host or cells: baculovirus expression system
Nature of the data set: FGF-R spectrophotometric assay.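 Also: coupled PK/LDH enzyme assay: ADP from kinase phosphoryl transfer drives NADH oxidation, read as absorbance decrease at 340 nm, with 2 mM ATP and poly(E4Y1) substrate.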 The format is biochemical. The note with it: @ 1 μM; read-out: FGF-P percent inhibition.
Text: The intracellular kinase domain of human FGF-R1 was expressed using the baculovirus vector expression system starting from the endogenous methionine residue 456 to glutamate 766, according to the residue numbering system of Mohammadi et al., Mol. Cell.
The production of ADP from ATP that accompanies phosphoryl transfer was coupled to oxidation of NADH using phosphoenolpyruvate (PEP) and a system having pyruvate kinase (PK) and lactic dehydrogenase (LDH). The oxidation of NADH was monitored by following the decrease of absorbance at 340 nm (e340=6.22 cm^−1 mM^−1) using a Beckman DU 650 spectrophotometer. […] Assays were initiated with 5 to 40 nM of enzyme. Ki values were determined by measuring enzyme activity in the presence of varying concentrations of test compounds. The data were analyzed using Enzyme Kinetic and Kaleidagraph software.
The spectrophotometric assay was carried out as described above for VEGF-R2, except for the following changes in concentration: FGF-R=50 nM, ATP=2 mM, and poly(E4Y1)=15 mM.

Data set [4] concerns the target T3, LCK tyrosine kinase (Homo sapiens, UniProt P06239, C224D/P223M).
T3 construct: starting from amino acid residue 223 to the end of the protein at residue 509; made in house; host or cells: insect cells
Kind of data set: LCK spectrophotometric assay.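 As to all read-outs here: recombinant LCK kinase activity on poly(E4Y1), ADP formation coupled through PK/LDH to NADH oxidation, followed as absorbance loss at 340 nm.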 The format is biochemical. The note with it: for inhibition at 1 µM: read-out: LCK-P percent inhibition; for Ki: read-out: LCK-P Ki.
Experimental: The production of ADP from ATP that accompanies phosphoryl transfer was coupled to oxidation of NADH using phosphoenolpyruvate (PEP) and a system having pyruvate kinase (PK) and lactic dehydrogenase (LDH). The oxidation of NADH was monitored by following the decrease of absorbance at 340 nm (e340=6.22 cm^−1 mM^−1) using a Beckman DU 650 spectrophotometer. Assay conditions for phosphorylated VEGF-R2Δ50 (indicated as FLVK-P in the tables below) were the following: 1 mM PEP; 250 μM NADH; 50 units of LDH/mL; 20 units of PK/mL; 5 mM DTT; 5.1 mM poly(E4Y1); 1 mM ATP; and 25 mM MgCl2 in 200 mM Hepes, pH 7.5. Assay conditions for unphosphorylated VEGF-R2Δ50 (indicated as FLVK in the tables) were the following: 1 mM PEP; 250 μM NADH; 50 units of LDH/mL; 20 units of PK/mL; 5 mM DTT; 20 mM poly(E4Y1); 3 mM ATP; and 60 mM MgCl2 and 2 mM MnCl2 in 200 mM Hepes, pH 7.5. Assays were initiated with 5 to 40 nM of enzyme. Ki values were determined by measuring enzyme activity in the presence of varying concentrations of test compounds. The data were analyzed using Enzyme Kinetic and Kaleidagraph software.

Data set [5] concerns the target T4, phosphorylated VEGF-R2Δ50 (FLVK-P) (Homo sapiens, UniProt P35968, DEL940-989/E990V).
T4 construct: VEGF-R2Δ50 contains residues 806-939 and 990-1171; made in house; host or cells: baculovirus/insect cells
Kind of data set: VEGF-R2 coupled spectrophotometric assay, phosphorylated construct (FLVK-P). The format is biochemical. Put shortly: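 Continuous PK/LDH-coupled spectrophotometric read (NADH loss at 340 nm) with 5–40 nM enzyme in 200 mM Hepes pH 7.5. Phosphorylated construct run at 1 mM ATP, 25 mM MgCl2, 5.1 mM poly(E4Y1); unphosphorylated at 3 mM ATP, 60 mM MgCl2 plus 2 mM MnCl2, 20 mM poly(E4Y1). Ki values derived from varied inhibitor concentrations.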

The test system of data set [6] is lung cancer cells (line MV522). Kind of data set: Cancer cell proliferation (MV522) assay (MTT). The format is cell-based. Particulars: MV522. The essentials:
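Proliferation was read by MTT reduction 72 h after compound addition, in a 4-day protocol with no starvation step. Two thousand MV522 cells were seeded in RPMI1640 with 10% FBS and 2 mM glutamine and given 1 day to attach before dosing.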

The mark [7] stands for this setting: HUVEC, with albumin, read-out: Huvec + Albumin IC50.
[8] abbreviates: VEGF-stimulated HUVEC proliferation, read-out: HUVEC IC50.
[9] abbreviates: unphosphorylated VEGF-R2 construct.

Like-named read-outs stand apart in the source and are kept apart here.

T2 sequence (P11362 456-766 L457V/C488A/C584S): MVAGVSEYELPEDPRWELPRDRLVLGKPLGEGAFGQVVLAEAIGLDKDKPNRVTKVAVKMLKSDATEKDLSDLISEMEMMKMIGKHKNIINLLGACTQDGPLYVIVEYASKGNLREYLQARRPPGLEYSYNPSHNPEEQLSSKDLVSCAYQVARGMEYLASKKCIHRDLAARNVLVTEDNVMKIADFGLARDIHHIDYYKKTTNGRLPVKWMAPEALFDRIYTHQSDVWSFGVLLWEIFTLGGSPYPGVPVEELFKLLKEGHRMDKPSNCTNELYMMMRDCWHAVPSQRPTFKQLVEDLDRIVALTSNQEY
T4 sequence (P35968 with tags, fused parts or gaps DEL940-989/E990V limits assumed): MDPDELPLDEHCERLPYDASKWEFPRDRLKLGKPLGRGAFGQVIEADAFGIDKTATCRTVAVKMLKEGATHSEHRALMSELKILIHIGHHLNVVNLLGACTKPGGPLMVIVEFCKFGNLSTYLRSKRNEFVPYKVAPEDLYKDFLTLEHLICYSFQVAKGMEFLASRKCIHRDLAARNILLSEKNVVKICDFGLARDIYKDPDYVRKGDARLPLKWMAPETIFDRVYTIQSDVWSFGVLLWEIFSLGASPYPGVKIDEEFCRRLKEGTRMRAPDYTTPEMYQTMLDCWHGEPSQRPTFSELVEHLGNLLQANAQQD
T1 sequence (P35968 with tags, fused parts or gaps DEL940-989/E990V limits assumed): as above
T3 sequence (P06239 223-509 P223M/C224D): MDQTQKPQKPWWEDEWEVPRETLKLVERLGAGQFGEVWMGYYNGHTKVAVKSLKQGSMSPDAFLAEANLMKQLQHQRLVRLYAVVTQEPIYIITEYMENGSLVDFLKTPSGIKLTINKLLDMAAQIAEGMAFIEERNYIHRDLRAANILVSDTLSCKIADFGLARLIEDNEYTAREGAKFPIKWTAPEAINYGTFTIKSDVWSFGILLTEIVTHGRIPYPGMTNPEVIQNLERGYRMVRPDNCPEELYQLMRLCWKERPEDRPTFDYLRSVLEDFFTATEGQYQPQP

Consider `COc1ccc(/C=C/c2cc(CCc3cccc(C(=O)Nc4ccc(C(C)C)c(C)c4)c3)[nH]n2)cc1OC` [Example F-3, 3-(2-{5-[(E)-2-(3,4-Dimethoxyphenyl)ethenyl]-2H-pyrazol-3-yl}-ethyl)-N-(3-methyl-4-isopropylphenyl)-benzamide], for which the IC50 in data set [1] (HUVEC, read-out: HUVEC IC50) was 10 nM; in data set [6], above 10000 nM. Further, the Ki in data set [2] is 0.31 nM; in data set [5] it was 1.01 nM. Also, the figures for the inhibition at 1 µM in data set [3] and in data set [4] were 83% and 84%, respectively.
As to `Cc1cc(NC(=O)c2cccc(CCc3cc(Nc4ccccc4)n[nH]3)c2)ccc1C(C)C` [Example G-3, N-(4-isopropyl-3-methylphenyl)-3-[2-(5-phenylamino-2H-pyrazol-3-yl)ethyl]benzamide], the melting point was in the range of 150 to 151 °C. The IC50 in data set [1] (HUVEC, read-out: HUVEC IC50) was 9.8 nM. In addition, in data set [1] (setting [7]), the IC50 amounted to 280 nM. For the same molecule, the inhibition at 1 µM in data set [3] was 91%. Further, the Ki in data set [4] worked out at 11.2 nM. This molecule also had an inhibition constant Ki in data set [5] of 0.197 nM. Also, the IC50 in data set [6] is above 10000 nM.
Regarding `COc1ccc(Nc2cc(CCc3cccc(C(=O)Nc4ccc(C(C)C)c(C)c4)c3)[nH]n2)cn1` [Example G-4, N-(4-Isopropyl-3-methyl-phenyl)-3-{2-[5-(6-methoxypyridin-3-yl)amino-2H-pyrazol-3-yl]-ethyl}-benzamide], the half-maximal inhibitory concentration (IC50) in data set [1] (HUVEC, read-out: HUVEC IC50) was 16 nM; in data set [6] it was above 10000 nM. Also, the results for the Ki in data set [2], in data set [4] and in data set [5] were 0.1 nM, 72 nM and 0.79 nM, respectively. Also, the inhibition at 1 µM in data set [3] was 77%.
Take `COc1ccc(Nc2cc(CCc3cccc(C(=O)Nc4ccc(N(C)C)c(C(F)(F)F)c4)c3)[nH]n2)cn1` [Example G-5, N-(4-Dimethylamino-3-trifluoromethylphenyl)-3-{2-[5-(6-methoxypyridin-3-yl)amino-2H-pyrazol-3-yl]ethyl}-benzamide]: the IC50 in data set [1] (HUVEC, read-out: HUVEC IC50) was 8.4 nM; in data set [6], above 10000 nM. Besides, the Ki in data set [2] turned out to be 0.35 nM; in data set [4], 69 nM; in data set [5], 1.86 nM. Also, the inhibition at 1 µM in data set [3] came to 68%.
Take `COc1ccc(Nc2cc(CCc3cccc(C(=O)Nc4cnc(N(C)C)c(C(F)(F)F)c4)c3)[nH]n2)cn1` [Example G-6, N-(6-Dimethylamino-5-trifluoromethylpyridin-3-yl)-3-{2-[5-(6-methoxypyridin-3-yl)amino-2H-pyrazol-3-yl]ethyl}-benzamide]: the 50% inhibitory concentration (IC50) in data set [1] (HUVEC, read-out: HUVEC IC50) was 12 nM; in data set [1] (setting [7]), 59 nM; in data set [6] it was 10000 nM. For the same molecule, in data set [3], the inhibition at 1 µM was found to be 74%. The Ki in data set [4] is 65 nM; in data set [5], 1.98 nM.
Take `COc1ccc(Nc2cc(CCc3cccc(C(=O)Nc4ccc(N5CCNCC5)c(C(F)(F)F)c4)c3)[nH]n2)cn1` [Example G-10]: the IC50 is 5.7 nM in data set [1] (HUVEC, read-out: HUVEC IC50); 180 nM in data set [1] (setting [7]); 5100 nM in data set [6]. Moreover, the Ki in data set [2] was determined as 3 nM; in data set [5] it was 2.6 nM. Moreover, the results for the inhibition at 1 µM in data set [3] and in data set [4] were 33% and 48%, respectively.
`Cc1cc(NC(=O)c2cccc(C3CC3c3cc(Nc4ccccc4)n[nH]3)c2)ccc1C(C)C` (centres unmarked) [Example H-1, N-(4-Isopropyl-3-methyl-phenyl)-3-[2-(5-phenylamino-2-H-pyrazol-3-yl)cyclopropyl]-benzamide]: the IC50 is 27 nM in data set [1] (HUVEC, read-out: HUVEC IC50) and above 10000 nM in data set [6]. For the same molecule, the Ki was 0.19 nM in data set [2] and 1.19 nM in data set [5]. Besides, the inhibition at 1 µM in data set [3] is 83%; in data set [4], 41%.
In the case of `Cc1cc(NC(=O)c2cccc(OCc3cncc4ccccc34)c2)ccc1C(C)C` [Example K-1, N-(4-Isopropyl-3-methyl-phenyl)-3-(Isoquinolin-4-yl)methoxy-benzamide], the IC50 in data set [1] (HUVEC, read-out: HUVEC IC50) is 40 nM; in data set [1] (setting [7]) it was above 1000 nM; in data set [6], 10000 nM. For the same molecule, the Ki in data set [2] was determined as 1.6 nM; in data set [4] it was 59 nM; in data set [5], 1.46 nM. The inhibition at 1 µM in data set [3] stood at 79%.
For the molecule `Cc1ccc(C(=O)Nc2ccc(C(C)C)c(C)c2)cc1OCc1cncc2ccccc12` [Example K-11, N-(4-Isopropyl-3-methyl-phenyl)-4-methyl-3-(Isoquinolin-4-yl)methoxy-benzamide], the IC50 in data set [1] (HUVEC, read-out: HUVEC IC50) was determined as 37 nM; in data set [6] it was 8100 nM. Moreover, the inhibition at 1 µM is 59% in data set [3] and 82% in data set [4]. The same molecule displayed a Ki in data set [5] of 3.49 nM.
Consider `Cc1cc(NC(=O)c2ccc(Cl)c(OCc3cncc4ccccc34)c2)ccc1C(C)C` [Example K-12, N-(4-Isopropyl-3-methyl-phenyl)-4-chloro-3-(Isoquinolin-4-yl)methoxy-benzamide], for which the IC50 came out at 27 nM in data set [1] (HUVEC, read-out: HUVEC IC50) and 4700 nM in data set [6]. In addition, the inhibition at 1 µM in data set [3] came out at 70%; in data set [4] it was 48%. In addition, the affinity in data set [5] corresponds to a Ki of 2.96 nM.
Regarding `O=C(Nc1cc(Cl)c(N2CCCC2)c(Cl)c1)c1ccc(F)c(OCc2cccnc2)c1` [Example R-11, N-(3,5-Dichloro-4-pyrrolidin-1-yl-phenyl)-4-fluoro-3-(pyridin-3-ylmethoxy)-benzamide], the melting point lay in the range of 163 to 167 °C. In addition, the IC50 in data set [1] (HUVEC, read-out: HUVEC IC50) came to 31 nM. Besides, the inhibition at 0.05 µM in data set [2] (@ 50 nM, read-out: FLVK percent inhibition) is 59%. For the same molecule, the inhibition at 1 µM in data set [3] worked out at 30%. In addition, in data set [4], the inhibition at 1 µM was 59%.
In the case of `O=C(Nc1ccc(N2CCOCC2)c(C(F)(F)F)c1)c1ccc(F)c(OCc2cccnc2)c1` [Example R-12, 4-Fluoro-N-(4-morpholin-4-yl-3-trifluoromethyl-phenyl)-3-(pyridin-3-ylmethoxy)-benzamide], the melting point is 160 to 161 °C. The IC50 in data set [1] (HUVEC, read-out: HUVEC IC50) was determined as 15 nM. The Ki in data set [2] is 4.4 nM. Further, the inhibition at 1 µM in data set [3] came out at 62%. For the same molecule, the inhibition at 1 µM in data set [4] amounted to 45%. The molecule also came in with an IC50 in data set [6] of 5900 nM.
Consider `O=C(Nc1ccc(N2CCNCC2)c(C(F)(F)F)c1)c1ccc(F)c(OCc2cccnc2)c1` [Example R-13, 4-Fluoro-N-[4-(piperazin-1-yl)-3-trifluoromethylphenyl]-3-(pyridin-3-yl)methoxybenzamide], for which the melting point was 123 to 131 °C. Besides, in data set [1] (HUVEC, read-out: HUVEC IC50), the IC50 was 19 nM. In addition, in data set [1] (setting [7]), the IC50 worked out at 120 nM. Further, the Ki in data set [2] is 16.5 nM. The inhibition at 1 µM in data set [3] is 7%. For the same molecule, the inhibition at 1 µM in data set [4] is 5%. The molecule also showed a concentration for half-maximal inhibition (IC50) in data set [6] of 1800 nM.
Take `O=C(Nc1ccc(N2CCNCC2)c(C(F)(F)F)c1)c1ccc(F)c(OCc2cncc3ccccc23)c1` [Example R-15, 4-Fluoro-N-(4-piperazin-1-yl-3-trifluoromethyl-phenyl)-3-(isoquinolin-4-ylmethoxy)-benzamide]: the IC50 was 36 nM in data set [1] (HUVEC, read-out: HUVEC IC50); 130 nM in data set [1] (setting [7]); 3100 nM in data set [6]. Moreover, the inhibitory constant (Ki) in data set [2] stood at 8.8 nM. Also, the inhibition at 1 µM in data set [3] amounted to 41%; in data set [4] it was 26%.
As for `CC(C)(C)c1cc(C(=O)Nc2cccc(SCc3cccnc3)c2)ccc1O` [Example W-2, 3-t-Butyl-4-hydroxy-N-[3-(pyridin-3-ylmethylsulfanyl)-phenyl]-benzamide], the melting point lay in the range of 95 to 100 °C. Further, the IC50 in data set [1] (setting [8]) is 120 nM. Also, the Ki in data set [2] (setting [9]) worked out at 1.5 nM. Also, in data set [3], the inhibition at 1 µM came out at 18%. Besides, the inhibition at 1 µM in data set [4] was 19%.
In turn, `CC(C)(C)c1cc(C(=O)Nc2cccc(SCc3cncc4ccccc34)c2)ccc1O.Cl` [Example W-3, 3-t-Butyl-4-hydroxy-N-[3-(isoquinolin-4-ylmethylsulfanyl)-phenyl]-benzamide] gave a melting point of 205 to 210 °C. The IC50 in data set [1] (setting [8]) is 220 nM. In data set [2] (setting [9]), this molecule yielded a Ki of 0.7 nM. Besides, the inhibition at 1 µM in data set [3] came to 56%. Besides, the inhibition at 1 µM in data set [4] was 65%.
`CC(C)(C)c1cc(C(=O)Nc2cccc(OCc3cncc(Br)c3)c2)ccc1O` [Example X-1, N-[3-(5-Bromo-pyridin-3-ylmethoxy)-phenyl]-3-t-butyl-4-hydroxy-benzamide] yielded a melting point of 105 to 111 °C. The IC50 in data set [1] (HUVEC proliferation with albumin, read-out: Huvec + Albumin IC50) was 330 nM. In addition, the half-inhibitory concentration (IC50) in data set [1] (setting [8]) was 27 nM. Also, the affinity in data set [2] (setting [9]), expressed as Ki, was 1.5 nM. Besides, in data set [3], the inhibition at 1 µM is 28%. For the same molecule, in data set [4], the inhibition at 1 µM worked out at 59%.

The record behind these values is patent US6635641B2 (Agouron Pharmaceuticals, Inc., priority 2000, dated 2003).
